This passage reports IC50 results from patent US10640495B2, “Heterocycle derivatives having TrkA inhibitory activity” (Shionogi & Co., Ltd., priority 2015, dated 2020).

What is called IC50 is the concentration at which inhibition is half-maximal.

The target in this assay is human TrkA (Homo sapiens (Human), UniProt P04629). Nature of the assay: Human TrkA inhibition assay (Test Example 2). It is filed as biochemical. Put shortly: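 Recombinant TrkA (1 nmol/L) was preincubated 15 min at room temperature with compound in HEPES/MgCl2/DTT buffer, then reacted with FL-peptide 27 (1.5 μmol/L) and ATP (500 μmol/L) for 120 min at 37 °C. After EDTA stop, substrate phosphorylation was read by microfluidic mobility shift. IC50 came from logistic regression over 3-fold dilution series.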

[1] abbreviates: Table 155, human TrkA inhibition, read-out: IC50.
Where [2] appears, read: human TrkA 1 nmol/L, ATP 500 μmol/L, 120 min at 37° C., read-out: IC50 values (TrkA phosphorylation inhibition).

The structures appear in SMILES notation. Like-named read-outs stand apart in the source and are kept apart here.

Sequence of human TrkA (P04629 440-796): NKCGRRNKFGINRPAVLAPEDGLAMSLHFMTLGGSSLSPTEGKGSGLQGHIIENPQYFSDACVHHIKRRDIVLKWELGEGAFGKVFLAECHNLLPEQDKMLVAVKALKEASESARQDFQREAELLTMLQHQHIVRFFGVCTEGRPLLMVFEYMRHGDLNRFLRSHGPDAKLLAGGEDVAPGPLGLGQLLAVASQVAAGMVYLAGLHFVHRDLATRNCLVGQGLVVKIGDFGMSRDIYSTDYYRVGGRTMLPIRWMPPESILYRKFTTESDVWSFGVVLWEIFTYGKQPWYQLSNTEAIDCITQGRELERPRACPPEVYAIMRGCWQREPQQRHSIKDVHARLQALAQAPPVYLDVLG

Consider `COCCN1C[C@@H](NC(=O)Nc2c(C)c(-c3cnc4c(c3)nc(C(=O)N3CCN(C)CC3)n4C)nn2-c2ccccc2)[C@H](c2ccnc(F)c2)O1` (racemic) [Compound I-403], for which the IC50 under setting [1] was less than 100 nM.

As for `COCCN1C[C@@H](NC(=O)Nc2c(C)c(-c3cnc4c(c3)nc(C(=O)NC3CCN(C)CC3)n4C)nn2-c2ccccc2)[C@H](c2ccnc(F)c2)O1` (racemic) [Compound I-404], the IC50 under setting [1] is less than 100 nM.

As to `CCN1C[C@@H](NC(=O)Nc2c(C)c(-c3cnc(OC)nc3)nn2-c2ccccc2)[C@H](c2ccc(F)c(F)c2)O1` (racemic) [Compound I-405], under setting [1], the IC50 was less than 100 nM.

For `CCN1C[C@@H](NC(=O)Nc2c(C)c(-c3cnc(OC)c(C(=O)NC)c3)nn2-c2ccccc2)[C@H](c2ccc(F)c(F)c2)O1` (racemic) [Compound I-406], the IC50 under setting [2] was found to be 2.2 nM.

In the case of `COCCN1C[C@@H](NC(=O)Nc2c(C)c(-c3cnc(N4CC5(CCOCC5)C4)nc3)nn2-c2ccccc2)[C@H](c2ccnc(F)c2)O1` (racemic) [Compound I-408], under setting [1], the IC50 is less than 100 nM.

In the case of `COCCN1C[C@@H](NC(=O)Nc2c(C)c(-c3cnc(OCCN(C)C)nc3)nn2-c2ccccc2)[C@H](c2ccnc(F)c2)O1` (racemic) [Compound I-409], the IC50 under setting [1] is less than 100 nM.

For the compound `COCCN1C[C@@H](NC(=O)Nc2c(C)c(-c3cnc4c(c3)c(CN3CCCC3)nn4C)nn2-c2ccccc2)[C@H](c2ccnc(F)c2)O1` (racemic) [Compound I-412], the IC50 under setting [1] is less than 100 nM.

As to `COCCN1C[C@@H](NC(=O)Nc2c(C)c(-c3cnc4c(cnn4C4CCN(C)CC4)c3)nn2-c2ccccc2)[C@H](c2ccnc(F)c2)O1` (racemic) [Compound I-413], the IC50 under setting [2] amounted to 2.5 nM.

Regarding `COCCN1C[C@@H](NC(=O)Nc2c(C)c(-c3cnc(N4CCNCC4)nc3)nn2-c2ccccc2)[C@H](c2ccnc(F)c2)O1` (racemic) [Compound I-414], the IC50 under setting [1] was less than 100 nM.

Turning to `COCCN1C[C@@H](NC(=O)Nc2c(C)c(-c3cnc(N4CCNCC4)nc3)nn2-c2ccccc2)[C@H](c2cc(F)nc(F)c2)O1` (racemic) [Compound I-415], the IC50 under setting [1] is less than 100 nM.

Consider `COCCN1C[C@@H](NC(=O)Nc2c(C)c(-c3cnc(N4CCN(CC#N)CC4)nc3)nn2-c2ccccc2)[C@H](c2ccnc(F)c2)O1` (racemic) [Compound I-416], for which the IC50 under setting [1] is less than 100 nM.

Take `COCCN1C[C@@H](NC(=O)Nc2c(C)c(-c3cnc(OC4CCN(C)CC4)nc3)nn2-c2ccccc2)[C@H](c2cc(F)nc(F)c2)O1` (racemic) [Compound I-418]: the IC50 under setting [1] is less than 100 nM.

With `COCCN1C[C@@H](NC(=O)Nc2c(C)c(-c3cnc(N4CCN(CC#N)CC4)nc3)nn2-c2ccccc2)[C@H](c2cc(F)nc(F)c2)O1` (racemic) [Compound I-419], under setting [1], the IC50 was less than 100 nM.

Regarding `COCCN1C[C@@H](NC(=O)Nc2c(C)c(-c3cnc(N4C[C@H]5COC[C@@H](C4)N5)nc3)nn2-c2ccccc2)[C@H](c2ccnc(F)c2)O1` (racemic) [Compound I-421], the IC50 under setting [1] was less than 100 nM.

For `COCCN1C[C@@H](NC(=O)Nc2c(C)c(-c3cnc(N4C[C@H]5COC[C@@H](C4)N5C)nc3)nn2-c2ccccc2)[C@H](c2ccnc(F)c2)O1` (racemic) [Compound I-422], the IC50 under setting [1] was less than 100 nM.

In the case of `COCCN1C[C@@H](NC(=O)Nc2c(C)c(-c3cnc4c(c3)c(CN3CCC(F)(F)C3)nn4C)nn2-c2ccccc2)[C@H](c2ccnc(F)c2)O1` (racemic) [Compound I-423], the IC50 under setting [1] is less than 100 nM.

In the case of `COCCN1C[C@@H](NC(=O)Nc2c(C)c(-c3cnc4c(c3)c(CO[Si](C)(C)C(C)(C)C)nn4C)nn2-c2ccccc2)[C@H](c2ccnc(F)c2)O1` (racemic) [Compound I-424], the IC50 under setting [1] was less than 100 nM.

As for `COCCN1C[C@@H](NC(=O)Nc2c(C)c(-c3cnc(OC4CC4)nc3)nn2-c2ccccc2)[C@H](c2ccnc(F)c2)O1` (racemic) [Compound I-425], the IC50 under setting [1] is less than 100 nM.

`COCCN1C[C@@H](NC(=O)Nc2c(C)c(-c3cnc4c(c3)ncn4C3CCN(C)CC3)nn2-c2ccccc2)[C@H](c2ccnc(F)c2)O1` (racemic) [Compound I-426]: under setting [1], the IC50 is less than 100 nM.

With `COCCN1C[C@@H](NC(=O)Nc2c(C)c(-c3cnc4c(c3)OCCO4)nn2-c2ccccc2)[C@H](c2ccnc(F)c2)O1` (racemic) [Compound I-427], under setting [1], the IC50 was less than 100 nM.

Take `COCCN1C[C@@H](NC(=O)Nc2c(C)c(-c3cnc4c(c3)CN(Cc3ccccc3)CC4)nn2-c2ccccc2)[C@H](c2ccnc(F)c2)O1` (racemic) [Compound I-428]: under setting [1], the IC50 is less than 100 nM.

Regarding `COCCN1C[C@@H](NC(=O)Nc2c(C)c(-c3cnc(OC)c(OC)c3)nn2-c2ccccc2)[C@H](c2cnc(F)c(F)c2)O1` (racemic) [Compound I-429], under setting [1], the IC50 was less than 100 nM.

With `COCCN1C[C@@H](NC(=O)Nc2c(C)c(-c3cnc(OCC4CC4)nc3)nn2-c2ccccc2)[C@H](c2ccnc(F)c2)O1` (racemic) [Compound I-431], the IC50 under setting [2] is 3.1 nM.

Regarding `COCCN1C[C@@H](NC(=O)Nc2c(C)c(-c3cnc4c(cnn4C)n3)nn2-c2ccccc2)[C@H](c2ccnc(F)c2)O1` (racemic) [Compound I-432], the IC50 under setting [1] was less than 100 nM.

Take `COCCN1C[C@@H](NC(=O)Nc2c(C)c(-c3cnc(Br)nc3)nn2-c2ccccc2)[C@H](c2ccnc(F)c2)O1` (racemic) [Compound I-433]: under setting [1], the IC50 is less than 100 nM.

As for `COCCN1C[C@@H](NC(=O)Nc2c(C)c(-c3cnc4c(c3)c(CO)nn4C)nn2-c2ccccc2)[C@H](c2ccnc(F)c2)O1` (racemic) [Compound I-434], the IC50 under setting [1] is less than 100 nM.

On to `COCCN1C[C@@H](NC(=O)Nc2c(C)c(-c3cnc(C(=O)OC)c(CF)c3)nn2-c2ccccc2)[C@H](c2ccnc(F)c2)O1` (racemic) [Compound I-435], for which the IC50 under setting [1] was less than 100 nM.

With `COCCN1C[C@@H](NC(=O)Nc2c(C)c(-c3cnc(OCC(F)F)nc3)nn2-c2ccccc2)[C@H](c2ccnc(F)c2)O1` (racemic) [Compound I-436], the IC50 under setting [2] was 4 nM.

Regarding `CNC(=O)c1ncc(-c2nn(-c3ccccc3)c(NC(=O)N[C@@H]3CN(CCOC)O[C@H]3c3ccnc(F)c3)c2C)cc1CF` (racemic) [Compound I-437], the half-inhibitory concentration (IC50) under setting [1] was less than 100 nM.

On to `COCCN1C[C@@H](NC(=O)Nc2c(C)c(-c3cnc(C4[C@@H]5CC[C@H]4COC5)nc3)nn2-c2ccccc2)[C@H](c2ccnc(F)c2)O1` (mixture of isomers) [Compound I-438], for which the IC50 under setting [1] is less than 100 nM.

Take `COCCN1C[C@@H](NC(=O)Nc2c(C)c(-c3cnc4c(c3)CN(C(C)=O)CC4)nn2-c2ccccc2)[C@H](c2ccnc(F)c2)O1` (racemic) [Compound I-439]: the concentration for half-maximal inhibition (IC50) under setting [1] was less than 100 nM.

With `COCCN1C[C@@H](NC(=O)Nc2c(C)c(-c3cnc4c(c3)CN(C)CC4)nn2-c2ccccc2)[C@H](c2ccnc(F)c2)O1` (racemic) [Compound I-440], the IC50 under setting [1] was less than 100 nM.

For `COCCN1C[C@@H](NC(=O)Nc2c(C)c(Oc3ccnc(C(F)(F)F)c3)nn2-c2ccccc2)[C@H](c2ccnc(F)c2)O1` (racemic) [Compound I-441], the IC50 under setting [1] is 100 to 1000 nM.

On to `COCCN1C[C@@H](NC(=O)Nc2c(C)c(Oc3ccnc(F)c3)nn2-c2ccccc2)[C@H](c2ccnc(F)c2)O1` (racemic) [Compound I-442], for which, under setting [1], the IC50 is 100 to 1000 nM.

As to `COCCN1C[C@@H](NC(=O)Nc2c(C)c(-c3cnc(OC4CCOCC4)nc3)nn2-c2ccccc2)[C@H](c2ccnc(F)c2)O1` (racemic) [Compound I-443], the IC50 under setting [1] is less than 100 nM.
